Results: US20200323802A1, “SUPPORTING IMMUNOMODULATORY AGENT” (Flexopharm Brain GMBH & Go. KG, priority 2015, published 2020)
“Also recorded” adds a separate entry of the source.

How the values were obtained:
Treg cells = Treg cells in MS patients before and after 14 days of treatment with sodium propionate plus MS drug; format: in vivo, human; conditions: pooled comparison group, patient-specific dose of the MS drug together with sodium propionate 2×0.5 g daily, before vs after 14 days, FIG. 6
From the text: The disproportionate increase in the amount of Treg cells signifies a corresponding reduction in the autoimmune response.

[1] = tested on: experimental autoimmune encephalomyelitis (EAE); test: EAE mouse model: relative axonal density, demyelination of the white matter, CD3+ cells; format: in vivo; conditions: propionic acid (DI or OD), FIG. 3
Experimental: FIG. 3: is a graph showing the effect of propionic acid diet initiated at the time of disease induction (DI) or at the time of onset of symptoms (OD) compared to a diet control group on relative axonal density, demyelination in the white matter, and CD3+ cells in the mouse EAE model.
(§1) Mice kept under standardized conditions were fed on a normal diet enriched with long-chain fatty acids (30.9% lauric acid) and with 200 μl of propionate daily administered orally. The propionate was given either at the time of disease induction (DI) or at the onset of the disease (OD).
(§2) For the induction of EAE the mice were anesthetized and administered two subcutaneous injections of a 50 μl emulsion applied to the left and right tail basis and comprising a total of 200 μg MOG35-55 (myelin oligodendrocyte glycoprotein) and 200 μg Freund's adjuvant (CFA) with 4 mg/ml of M. tuberculosis. Pertussis toxin ([…]) was given intraperitoneally on day 0 and day 2 after the induction. The clinical assessment took place on a daily basis using a 5-point scale (SEM). The assessment was as follows:
The influence of the propionic acid on the relative axonal density, the demyelination of the white matter, and the number of CD3+-cells is shown in FIG. 3.

Foxp3 = test: Gene expression profiling of signature cytokines in EAE mice; format: in vivo, mouse; conditions: propionic acid-fed mice with EAE
From the text: (§3) In mice treated with propionic acid, the number of regulatory T cells increases with the changes that occur in the microbiota (CD4+CD25+ Foxp3+ Treg).

TGFβ1 = test: as above; format: in vivo, mouse; conditions: propionic acid-fed mice with EAE
From the text: as §3

IL-10 = test: as above; format: in vivo, mouse; conditions: propionic acid-fed mice with EAE
From the text: as §3

CD4+CD25+ Foxp3+ Treg = test: Levels of CD4+CD25+ Foxp3 regulatory T cells in mouse EAE model; format: in vivo
Experimental: FIG. 4: is a graph showing the effect of propionic acid diet initiated at the time of disease induction (DI) compared to a control group on levels of CD4+CD25+ Foxp3 cells in mouse EAE model
FIG. 5 is a graph showing the effect of lauric acid diet (250 μM and 500 μM) initiated at the time of disease induction (DI) compared to a control group on levels of CD4+CD25+ Foxp3 cells in mouse EAE model,
as §1
For the induction of EAE the mice were anesthetized and administered two subcutaneous injections of a 50 μl emulsion applied to the left and right tail basis and comprising a total of 200 μg MOG35-55 (myelin oligodendrocyte glycoprotein) and 200 μg Freund's adjuvant (CFA) with 4 mg/ml of M. tuberculosis. Pertussis toxin ([…]) was given intraperitoneally on day 0 and day 2 after the induction. The clinical assessment took place on a daily basis using a 5-point scale (SEM).

[2] = tested on: experimental autoimmune encephalomyelitis (EAE); test: EAE mouse model, daily clinical assessment on 5-point scale (SEM); format: in vivo
Experimental: as §1, §2
0=normal 1=Tail paralysis impairing raising 2=Gait ataxia 3=Paraparesis of hind legs
Mice showing SEM 4 or 5 were excluded.

intestinal microbiome = test: Influence on composition of the intestinal microbiome; format: in vivo; conditions: present in mice
From the text: The inventive acids, in particular propionic acid and butyric acid have an influence on the intestinal physiology and the microbiome present there. In this way, they have an impact on the composition of the microbiome.

TH1 and TH17 cells = test: Th1/Th17 cells in small bowel and central nervous system in EAE mice; format: in vivo; conditions: mouse EAE, lauric acid enriched diet
From the text: Moreover, the aliphatic chain length of the carboxylic acids also affects the […] autoimmunity as well as the regulatory response of Treg in an in vivo mouse model. […] In this context, MS and psoriasis are to be regarded as largely similar.

In the case of `CCCCCCCCc1ccc(CCC(N)(CO)CO)cc1` [fingolimod], the “increase in number of Treg cells by a factor” value (“increase in number” below) (Treg cells) is reported as 1.1.
For `CCC(=O)O` [propionic acid], the “relative axonal density, demyelination of the white matter and number of CD3+ cells versus control group” value [1] was “significant improvement”, the Foxp3 gene expression (Foxp3) was “increased values; also recorded: significant increase” and the TGFβ1 gene expression (TGFβ1) was “increased values; also recorded: significant increase”. The IL-10 gene expression (IL-10) was “increased values; also recorded: significant increase”, the “CD4+CD25+ Foxp3 cells versus control group” value (CD4+CD25+ Foxp3+ Treg; propionic acid administration (DI), FIG. 4) was “increases; also recorded: significant increase” and the “course of induced disease versus control group” value ([2]; MS mouse model (EAE), propionic acid given prophylactically) was “significant improvement”. For the same compound, the “disease progression (SEM) versus control group” value ([2]; mouse EAE, propionic acid given orally on the day of onset of disease (OD), FIG. 2) was “significantly less favorable disease progression than the control group”.
With glatiramer acetate the “increase in number” value (Treg cells) was 1.1.
In the case of `C/C(O)=C(\C#N)C(=O)Nc1ccc(C(F)(F)F)cc1` [teriflunomide], the “increase in number” value (Treg cells) is reported as 1.1.
In the case of `CCCCCCCCCCCC(=O)O` [lauric acid], the “CD4+CD25+ Foxp3 cells versus control value” (CD4+CD25+ Foxp3+ Treg; lauric acid enriched diet (250 μM and 500 μM), concentration dependent, FIG. 5) is reported as “reduction”, the “number of Provotellaceae and some families of Phylum Bacteroidetes” value (intestinal microbiome) is reported as “reduce significantly” and the “TH1 and TH17 cells in the small bowel” value (TH1 and TH17 cells) is reported as “significant reduction”. For the same compound, the “Th1/Th17 in the central nervous system” value (TH1 and TH17 cells) was “accumulation”.
